According to PubChem BioAssay (NCI):
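The compound was tested at five concentrations on cells cultured in 96-well plates, with a 48-hour exposure period. TGI: total growth inhibition.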

Legend:
Experiment in all cases: NCI tumour cell line growth inhibition, 48 h
786-0 renal = system: 786-0 renal
A498 renal = system: A498 renal
A549 NSCLC = system: A549 NSCLC
ACHN renal = system: ACHN renal
CAKI-1 renal = system: CAKI-1 renal
CCRF-CEM leukemia = system: CCRF-CEM leukemia
COLO 205 colon = system: COLO 205 colon
DLD-1 colon = system: DLD-1 colon
DMS 114 small cell lung = system: DMS 114 small cell lung
DMS 273 small cell lung = system: DMS 273 small cell lung
EKVX NSCLC = system: EKVX NSCLC
HCC-2998 colon = system: HCC-2998 colon
HCT-116 colon = system: HCT-116 colon
HCT-15 colon = system: HCT-15 colon
HL-60(TB) leukemia = system: HL-60(TB) leukemia
HOP-18 NSCLC = system: HOP-18 NSCLC
HOP-62 NSCLC = system: HOP-62 NSCLC
HOP-92 NSCLC = system: HOP-92 NSCLC
HT29 colon = system: HT29 colon
IGROV1 ovarian = system: IGROV1 ovarian
K-562 leukemia = system: K-562 leukemia
KM12 colon = system: KM12 colon
KM20L2 colon = system: KM20L2 colon
LOX IMVI melanoma = system: LOX IMVI melanoma
LXFL 529 NSCLC = system: LXFL 529 NSCLC
M14 melanoma = system: M14 melanoma
M19-MEL melanoma = system: M19-MEL melanoma
MALME-3M melanoma = system: MALME-3M melanoma
MOLT-4 leukemia = system: MOLT-4 leukemia
NCI-H226 lung = system: NCI-H226 lung
NCI-H23 lung = system: NCI-H23 lung
NCI-H460 lung = system: NCI-H460 lung
OVCAR-3 ovarian = system: OVCAR-3 ovarian
OVCAR-4 ovarian = system: OVCAR-4 ovarian
OVCAR-5 ovarian = system: OVCAR-5 ovarian
OVCAR-8 ovarian = system: OVCAR-8 ovarian
RPMI-8226 leukemia = system: RPMI-8226 leukemia
RXF 393 renal = system: RXF 393 renal
RXF-631 renal = system: RXF-631 renal
SF-268 CNS = system: SF-268 CNS
SF-295 CNS = system: SF-295 CNS
SF-539 CNS = system: SF-539 CNS
SK-MEL-2 melanoma = system: SK-MEL-2 melanoma
SK-MEL-28 melanoma = system: SK-MEL-28 melanoma
SK-MEL-5 melanoma = system: SK-MEL-5 melanoma
SK-OV-3 ovarian = system: SK-OV-3 ovarian
SN12C renal = system: SN12C renal
SNB-75 CNS = system: SNB-75 CNS
SNB-78 CNS = system: SNB-78 CNS
SR leukemia = system: SR leukemia
SW-620 colon = system: SW-620 colon
TK-10 renal = system: TK-10 renal
U251 CNS = system: U251 CNS
UACC-257 melanoma = system: UACC-257 melanoma
UACC-62 melanoma = system: UACC-62 melanoma
UO-31 renal = system: UO-31 renal
XF 498 CNS = system: XF 498 CNS

Measured: TGI

COC(=O)C1=C(c2ccc3c(c2)OCO3)OC(c2ccc3c(c2)OCO3)C1 (configuration not stated)
> 100 µM: all assays above
